Source: PubChem BioAssay AID1259407 (Chemical Carcinogenesis Research Information System (CCRIS), 2018)
Calls of active or inactive are those of the source. No rule for the calls is given here.

System: CCRIS mutagenicity, Ames/micronucleus/aberration tests
Experiment: CCRIS mutagenicity studies
Details: Test System: AMES SALMONELLA TYPHIMURIUM
[1] = Strain/Indicator: TA98, Metabolic Activation: NONE, Method: PREINCUBATION
[2] = Strain/Indicator: TA98, Metabolic Activation: RAT, LIVER, S-9, AROCLOR 1254, Method: PREINCUBATION
[3] = Strain/Indicator: TA100, Metabolic Activation: NONE, Method: PREINCUBATION
[4] = Strain/Indicator: TA102, Metabolic Activation: NONE, Method: STANDARD PLATE
[5] = Strain/Indicator: TA98, Metabolic Activation: NONE, Method: STANDARD PLATE
[6] = Strain/Indicator: TA100, Metabolic Activation: NONE, Method: STANDARD PLATE
[7] = Strain/Indicator: TA1535, Metabolic Activation: NONE, Method: STANDARD PLATE
[8] = Strain/Indicator: TA1537, Metabolic Activation: NONE, Method: STANDARD PLATE

In the case of CN[C@@H]1[C@H](O[C@H]2[C@H](O[C@H]3[C@H](O)[C@@H](O)[C@H](N=C(N)N)[C@@H](O)[C@@H]3N=C(N)N)O[C@@H](C)[C@]2(O)C=O)O[C@@H](CO)[C@H](O)[C@H]1O, the mutagenic call (Strain/Indicator: TA98, Metabolic Activation: HAMSTER, LIVER, S-9, AROCLOR 1254, Method: PREINCUBATION) is reported as “inactive; negative”, the mutagenic call [1] is reported as “inactive; negative” and the mutagenic call [2] is reported as “inactive; negative”. For the same compound, the mutagenic call (Strain/Indicator: TA100, Metabolic Activation: HAMSTER, LIVER, S-9, AROCLOR 1254, Method: PREINCUBATION) was “inactive; negative”, the mutagenic call [3] was “inactive; negative” and the mutagenic call (Strain/Indicator: TA100, Metabolic Activation: RAT, LIVER, S-9, AROCLOR 1254, Method: PREINCUBATION) was “inactive; negative”. For the same compound, the mutagenic call [4] was “active; positive”, the mutagenic call (Strain/Indicator: TA102, Metabolic Activation: RAT, LIVER, S-9, AROCLOR 1254, Method: STANDARD PLATE) was “active; positive” and the mutagenic call (Strain/Indicator: TA1535, Metabolic Activation: HAMSTER, LIVER, S-9, AROCLOR 1254, Method: PREINCUBATION) was “inactive; negative”. The mutagenic call (Strain/Indicator: TA1535, Metabolic Activation: NONE, Method: PREINCUBATION) was “inactive; negative”, the mutagenic call (Strain/Indicator: TA1535, Metabolic Activation: RAT, LIVER, S-9, AROCLOR 1254, Method: PREINCUBATION) was “inactive; negative” and the mutagenic call (Strain/Indicator: TA1537, Metabolic Activation: HAMSTER, LIVER, S-9, AROCLOR 1254, Method: PREINCUBATION) was “inactive; negative”. For the same compound, the mutagenic call (Strain/Indicator: TA1537, Metabolic Activation: NONE, Method: PREINCUBATION) was “inactive; negative”, the mutagenic call (Strain/Indicator: TA1537, Metabolic Activation: RAT, LIVER, S-9, AROCLOR 1254, Method: PREINCUBATION) was “inactive; negative” and the mutagenic call (Strain/Indicator: TA2638A, Metabolic Activation: NONE, Method: STANDARD PLATE) was “inactive; negative”.
OC1c2cccc3c2C2(OC2C1O)c1ccc2ccccc2c1-3 (centres undefined) was tested, and the mutagenic call (Strain/Indicator: TA97A, Metabolic Activation: NONE, Method: PREINCUBATION) was “active; positive”, the mutagenic call [1] was “active; positive” and the mutagenic call [3] was “active; positive”.
With CCc1cccc(CC)c1N=O the mutagenic call [1] was “active; positive”, the mutagenic call (Strain/Indicator: TA98, Metabolic Activation: RAT, LIVER, MICROSOMES, PHENOBARBITAL, Method: PREINCUBATION) was “active; positive” and the mutagenic call (Strain/Indicator: TA100, Metabolic Activation: RAT, LIVER, MICROSOMES, PHENOBARBITAL, Method: PREINCUBATION) was “active; positive”.
In the case of Nc1ccc(N=Nc2ccc(N)cc2)cc1, the mutagenic call (Strain/Indicator: TA98, Metabolic Activation: HAMSTER, LIVER, S-9, AROCLOR 1254, Method: STANDARD PLATE) is reported as “active; positive”, the mutagenic call [5] is reported as “inactive; negative” and the mutagenic call [2] is reported as “active; positive”. The mutagenic call (Strain/Indicator: TA98, Metabolic Activation: RAT, LIVER, S-9, AROCLOR 1254, Method: STANDARD PLATE) was “active; positive”, the mutagenic call [6] was “inactive; negative” and the mutagenic call (Strain/Indicator: TA100, Metabolic Activation: RAT, LIVER, S-9, AROCLOR 1254, Method: STANDARD PLATE) was “inactive; negative”. For the same compound, the mutagenic call [7] was “inactive; negative”, the mutagenic call (Strain/Indicator: TA1535, Metabolic Activation: RAT, LIVER, S-9, AROCLOR 1254, Method: STANDARD PLATE) was “inactive; negative” and the mutagenic call [8] was “inactive; negative”. For the same compound, the mutagenic call (Strain/Indicator: TA1537, Metabolic Activation: RAT, LIVER, S-9, AROCLOR 1254, Method: STANDARD PLATE) was “inactive; negative”, the mutagenic call (Strain/Indicator: TA1538, Metabolic Activation: NONE, Method: STANDARD PLATE) was “inactive; negative” and the mutagenic call (Strain/Indicator: TA1538, Metabolic Activation: RAT, LIVER, S-9, AROCLOR 1254, Method: STANDARD PLATE) was “active; positive”.
In the case of COc1cc(O)c2c(=O)c3c(OC)cc4c(c3oc2c1OC)C1CCOC1O4 (centres undefined), the mutagenic call (Strain/Indicator: TA98, Metabolic Activation: RAT, LIVER, S-9, PHENOBARBITAL, Method: STANDARD PLATE) is reported as “inactive; negative” and the mutagenic call (Strain/Indicator: TA100, Metabolic Activation: RAT, LIVER, S-9, PHENOBARBITAL, Method: STANDARD PLATE) is reported as “inactive; negative”.
In the case of CCOC(=O)C(SP(=S)(OC)OC)c1ccccc1 (centres undefined), the mutagenic call [5] is reported as “inactive; negative”, the mutagenic call (Strain/Indicator: TA98, Metabolic Activation: S-9, NADPH GENERATING SYSTEM, Method: STANDARD PLATE) is reported as “inactive; negative” and the mutagenic call [4] is reported as “inactive; negative”. For the same compound, the mutagenic call (Strain/Indicator: TA102, Metabolic Activation: S-9, NADPH GENERATING SYSTEM, Method: STANDARD PLATE) was “inactive; negative”, the mutagenic call [7] was “inactive; negative” and the mutagenic call (Strain/Indicator: TA1535, Metabolic Activation: S-9, NADPH GENERATING SYSTEM, Method: STANDARD PLATE) was “inactive; negative”. For the same compound, the mutagenic call [8] was “inactive; negative” and the mutagenic call (Strain/Indicator: TA1537, Metabolic Activation: S-9, NADPH GENERATING SYSTEM, Method: STANDARD PLATE) was “inactive; negative”.
In the case of Cc1ccc2n[nH]nc2c1, the mutagenic call (Strain/Indicator: TA97, Metabolic Activation: NONE) is reported as “inactive; negative”, the mutagenic call (Strain/Indicator: TA97, Metabolic Activation: RAT, LIVER, S-9, AROCLOR 1254) is reported as “inactive; negative” and the mutagenic call (Strain/Indicator: TA98, Metabolic Activation: NONE) is reported as “inactive; negative”. The mutagenic call (Strain/Indicator: TA98, Metabolic Activation: RAT, LIVER, S-9, AROCLOR 1254) was “inactive; negative”, the mutagenic call (Strain/Indicator: TA100, Metabolic Activation: NONE) was “inactive; negative” and the mutagenic call (Strain/Indicator: TA100, Metabolic Activation: RAT, LIVER, S-9, AROCLOR 1254) was “inactive; negative”. For the same compound, the mutagenic call (Strain/Indicator: TA102, Metabolic Activation: NONE) was “inactive; negative” and the mutagenic call (Strain/Indicator: TA102, Metabolic Activation: RAT, LIVER, S-9, AROCLOR 1254) was “inactive; negative”.
N#Cc1cccc(/C=C/c2ccc(N)cc2)c1 was tested, and the mutagenic call (Strain/Indicator: TA98(1,8-DNP6), Metabolic Activation: NONE, Method: STANDARD PLATE) was “inactive; negative”, the mutagenic call (Strain/Indicator: TA98(1,8-DNP6), Metabolic Activation: S-9, Method: STANDARD PLATE) was “active; positive” and the mutagenic call [5] was “active; positive”. The mutagenic call (Strain/Indicator: TA98, Metabolic Activation: S-9, Method: STANDARD PLATE) was “active; positive”, the mutagenic call [6] was “inactive; negative” and the mutagenic call (Strain/Indicator: TA100, Metabolic Activation: S-9, Method: STANDARD PLATE) was “active; positive”.
With O=C1CCCN1c1ncc([N+](=O)[O-])s1 the mutagenic call [5] was “active; positive” and the mutagenic call [6] was “inactive; negative”.
